Experimental data reported in PubChem BioAssay AID179 (DTP/NCI, 2004).
The source made the active and inactive calls.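 Rule for the calls: active = compounds giving half or more protection of infected cells from virus-caused growth loss, again on retest; inactive = the rest.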

Test system: CEM cells HIV-1 protection, formazan growth assay
Assay: NCI AIDS Antiviral Assay
Details: for IC50: measured here: growth of uninfected CEM cells
Outline: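 Category rules: moderately active means at least 50% protection on retest, and confirmed active means 100% protection reproducibly. The underlying data came from a formazan growth assay in HIV-1-infected CEM cells.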

| Structure (SMILES) | EC50 [µM] | IC50 [µM] | outcome |
| --- | --- | --- | --- |
| Cc1ccc(C2=C(c3ccccc3)C(O)(c3ccc(C)cc3)C(c3ccccc3)=C2c2ccc(C)cc2)cc1 | > 5.13 | > 5.13 | – |
| [N-]=[N+]=NC1CC(n2cc(C(OCC(F)(F)F)OCC(F)(F)F)c(=O)[nH]c2=O)OC1CO (stereo not drawn) | 25.1 | 107 | – |
| Cc1ccc(S(=O)S(=O)c2ccc(C)cc2)cc1 (stereo not drawn) | – | – | inactive |
| Cc1c(CCCl)c(=O)n2c([nH]c3ccccc32)c1C#N | > 200 | 7.59 | – |
| [C-]#[O+].[C-]#[O+].[C-]#[O+].[C-]#[O+].[Cr].c1ccc(P(CCP(CCP(c2ccccc2)c2ccccc2)c2ccccc2)CCP(c2ccccc2)c2ccccc2)cc1 (stereo not drawn) | > 1.74 | > 1.74 | – |
| COc1ccc(NCn2nc(CCCCCCCCc3nn(CNc4ccc(OC)cc4)c(=S)o3)oc2=S)cc1 | > 200 | 158 | – |
| CCc1cccc(NC(=O)c2cc(/C=C/c3ccccc3)[nH]c(=S)n2)c1 | > 347 | > 347 | – |
| NCCCNCCCCN1CCOC1=O | > 200 | 50.1 | – |
| C[C@H](N)C(=O)N[C@@H]1[C@H]2C(=C(O)C[C@@H](O)[C@@H]2O)C(=O)O[C@@H]1C | – | – | inactive |
| CC(=O)N(CCc1ccccc1)C(C)(C#N)c1ccccc1 (stereo not drawn) | > 200 | > 200 | – |
| Cc1noc(NS(=O)(=O)c2ccc(NC(=S)N/C=C(\C#N)C(N)=O)cc2)c1C | – | – | inactive |
| O=C(O)c1cc(O)c(O)c(O)c1 | > 200 | 11 | – |
| O=C(C/C=C/c1ccccc1)c1ccccc1 | > 200 | 10 | – |
| N#CCN1C(=O)c2cc([N+](=O)[O-])cc3cc([N+](=O)[O-])cc(c23)C1=O | – | – | inactive |
| O=C(O)C1CSCN1 (stereo not drawn) | > 468 | > 468 | – |
| CCCN(CCc1ccc(-c2ccccc2)cc1)CCc1ccc2n[nH]nc2c1 | > 200 | 10 | – |
| CC1(C)OCC(C(O)C2OC(C)(C)OC2/C=N\O)O1 (stereo not drawn) | > 912 | > 912 | – |
| CC(O[Si](c1ccccc1)(c1ccccc1)C(C)(C)C)[C@H](NC(=O)OC(C)(C)C)C(=O)O (stereo partly drawn) | > 40.7 | > 40.7 | – |
| Cn1c(=O)c2c(=O)cc(N)[nH]c2n(C)c1=O | – | – | inactive |
| COc1cccc(CCn2c(N)c(-c3cc(Cl)cc(Cl)c3)c3ccc([N+](=O)[O-])cc3c2=O)c1 | > 200 | 3.39 | – |
| CC(=O)OCC1OC(Nc2cc(=O)n(C)c(=O)[nH]2)C(OC(C)=O)C(OC(C)=O)C1OC(C)=O (stereo not drawn) | – | – | inactive |
| O=C(NC1C=Nc2ccc([N+](=O)[O-])cc2NC1=O)c1ccc(Cl)cc1 (stereo not drawn) | > 200 | > 200 | – |

| Structure (SMILES) | EC50 [µM] | IC50 [µM] | outcome |
| --- | --- | --- | --- |
| CCN1CC2(COC)C(O)CC(OC)C34C5CC6(O)C(OC)C=C(C5C6OC(=O)c5ccc(OC)c(OC)c5)C(C(OC)C23)C14 (stereo not drawn) | – | – | inactive |
| CCOC1(c2ccccc2)OC(=O)c2ccccc21 (stereo not drawn) | – | – | inactive |
| Cc1ccc(/C=C2\Cc3cc(C)c(C)cc3C2=O)c(C(=O)O)c1 | > 200 | 38.9 | – |
| Cc1cc(-c2ccc(N=Nc3ccc4c(S(=O)(=O)[O-])cc(S(=O)(=O)[O-])c(N)c4c3O)c(C)c2)ccc1N=Nc1ccc2c(S(=O)(=O)[O-])cc(S(=O)(=O)[O-])c(N)c2c1O.[Ga] | 1.12 | 38.9 | – |
| N=c1c2c(-c3ccccc3)c[nH]c2ncn1N | > 200 | > 200 | – |
| O=[N+]([O-])c1ccc(S(=O)(=O)n2c3ccc(Br)cc3c3nc4ccccc4nc32)cc1 | > 100 | > 100 | – |
| CC(=O)OCC1OC(n2c3c(c(-c4cccc5ccccc45)c(C#N)c2=S)CCCC3)C(OC(C)=O)C(OC(C)=O)C1OC(C)=O (stereo not drawn) | > 200 | 47.9 | – |
| c1ccc2c(NCCCCCCCCNc3c4ccccc4nc4ccccc34)c3ccccc3nc2c1 | – | – | inactive |
| O=[N+]([O-])c1ccc(-n2nnc(C3=NCCCN3)c2-c2ccc(Cl)cc2)cc1 | 1.38 | 148 | – |
| CC12CCC(OC3OC(CO)C(OC4OC(CO)C(O)C(O)C4O)C(O)C3O)CC1CCC1C2CCC2(C)C(C3=CC(=O)OC3)CCC12O (stereo not drawn) | > 20 | 0.309 | – |
| CC(C)(C)N1NC1C1NN1C(C)(C)C (stereo not drawn) | > 200 | > 200 | – |
| COCN1C(=O)[C@@H]2CCCN2C(=O)c2ccc(N)cc21 | > 200 | > 200 | – |
| O[C@H]1[C@H](O)[C@@H](Cn2nnc(-c3ccccc3)c2-c2ccccc2)OCO[C@@H]1Cn1nnc(-c2ccccc2)c1-c1ccccc1 | > 200 | 9.55 | – |
| CC1=CCN(C2CC(C)C(=O)N2)C1=O (stereo not drawn) | – | – | inactive |
| CN(C)c1nncc2[nH]cnc12 | > 200 | > 200 | – |
| O=C1c2cccc3cccc(c23)C(=O)N1CCCCCCCCN1C(=O)c2cccc3cccc(c23)C1=O | > 200 | 14.8 | – |
| Cc1n[nH]c(=S)n1NC=O | > 200 | > 200 | – |
| c1ccc(C2SCc3nc4cc5ccccc5cc4n32)cc1 (stereo not drawn) | > 200 | > 200 | – |
| C/C=C1/C=CC2c3[nH]c4ccccc4c3CCN2C1 (stereo not drawn) | > 145 | 93.3 | – |
| Cc1ccc(/C(O)=C/c2nc3c(nc2NC24CC5CC(CC(C5)C2)C4)c(=O)oc2ccccc23)cc1 | > 2.19 | > 2.19 | – |
| CCOC(=O)CC1=NC(=Nc2cc(Cl)ccc2Cl)SC1 | > 77.6 | > 77.6 | – |
| C=CN1CCCC1=O | – | – | inactive |

| Structure (SMILES) | EC50 [µM] | IC50 [µM] | outcome |
| --- | --- | --- | --- |
| CCOC(=O)C(C)(C(=O)OCC)/C(Cl)=C\Cl | > 200 | > 200 | – |
| CC(=O)CCC1(c2ccccc2)OC(=O)C(C#N)=C1c1ccccc1 (stereo not drawn) | – | – | inactive |
| OC1CN2CC[C@H](O)C2C(O)[C@@H]1O (stereo partly drawn) | 61.7 | 1320 | – |
| O=C1c2cc(Br)ccc2OC2CCON12 (stereo not drawn) | – | – | inactive |
| O=C(NCc1ccccc1)/C(=C/c1ccc2c(c1)OCO2)NC(=O)c1ccccc1 | > 200 | > 200 | – |
| COc1cccc(/C(Cl)=C(\C=O)c2cccc(OC)c2)c1 | > 17.4 | 9.12 | – |
| COc1ccc(OC)c2c3c(ccc12)C1(CCc2c(C)cccc21)OC3=O (stereo not drawn) | > 55 | 8.13 | – |
| O=C1C(C(O)(C(F)(F)Cl)C(F)(F)Cl)CCC1C(O)(C(F)(F)Cl)C(F)(F)Cl (stereo not drawn) | > 200 | 4.37 | – |
| CC1(C=O)C(=O)CCC2(C)C3CC(=O)OC3CCC12 (stereo not drawn) | – | – | inactive |
| CCOc1ccc(NC(=O)CCc2nnc(SC)o2)cc1 | > 162 | > 162 | – |
| CC(C)N1CC2CC(CN(C(=O)c3ccc(Cl)cc3)C2)C1 | > 427 | > 427 | – |
| Nc1ncnc2c1ncn2C1CC(CO)CO1 (stereo not drawn) | 209 | 214 | – |
| c1ccc(-c2nnc3nn4c(-c5ccccc5)cnnc4c3c2-c2ccccc2)cc1 | > 9.33 | > 9.33 | – |
| COc1ccc(/C=C(/C#N)c2ccc(Cl)cc2)cc1 | > 200 | 3.98 | – |
| CCCCCCCCCCCC(=O)OC(COC(N)=O)COc1ccc(Cl)cc1 (stereo not drawn) | > 12.3 | > 12.3 | – |
| Cc1ccc(-c2cnc(NC3OC(COC(=O)c4ccccc4)C(OC(=O)c4ccccc4)C(OC(=O)c4ccccc4)C3OC(=O)c3ccccc3)s2)cc1 (stereo not drawn) | > 200 | 13.8 | – |
| Nc1c(Cl)cccc1-c1c[nH]cc1Cl | > 794 | > 100 | – |
| COc1ccc(C(c2ccccc2C(=O)O)c2ccc(OC)c3ccccc23)c2ccccc12 | > 41.7 | 10.7 | – |
| C=CCC1C2CCC(O[Si](C(C)C)(C(C)C)C(C)C)(C(C(=O)OC)C2)C1O (stereo not drawn) | > 200 | 91.2 | – |
| Nc1ccc2c(O)c(N=Nc3ccc(-c4ccc(N=Nc5c(S(=O)(=O)O)cc6cc(S(=O)(=O)O)c(N=Nc7cc(Cl)ccc7Cl)c(N)c6c5O)cc4)cc3)c(S(=O)(=O)O)cc2c1 | – | – | inactive |
| O=C(Cc1csc(N=Nc2c(O)[nH]c3ccccc23)n1)Nc1ccccc1 | > 200 | 112 | – |
| CC1(C)CC(O)C(C)(C)[C@@H](O)C1 (stereo partly drawn) | – | – | inactive |

| Structure (SMILES) | EC50 [µM] | IC50 [µM] | outcome |
| --- | --- | --- | --- |
| O=C1OCc2cc[n+]([O-])cc21 | > 1660 | > 1660 | – |
| CN(C)c1cccc2c1C(=O)C=CC21CCc2ccc(N(C)C)c3c(N(C)C)ccc1c23 (stereo not drawn) | > 200 | 8.71 | – |
| O=C1CC(c2ccc([N+](=O)[O-])cc2)=Nc2ccccc2N1 | > 200 | > 200 | – |
| COc1ccc([C@H]2Oc3cc(O)cc(O)c3C(=O)[C@@H]2[C@H]2C(=O)c3c(O)cc(OC)cc3O[C@@H]2c2ccc(OC)cc2)cc1 | > 200 | 110 | – |
| O=c1[nH]c(-c2ccccc2)nc2ccc(Cl)cc12 | – | – | inactive |
| CCOC(=O)C1C=CC(C)C2CCCCC12N1CCCC1 (stereo not drawn) | – | – | inactive |
| OC1(c2ccccc2)c2ccccc2Oc2ccccc21 | > 200 | 17.4 | – |
| Cc1cn(C2CC(Sc3ccccc3)C(CO)O2)c(=O)[nH]c1=O (stereo not drawn) | > 200 | > 200 | – |
| Cc1ccc(SCC(O)=C2C(=O)CCCC2=O)cc1 | > 245 | 158 | – |
| CC1Oc2c3c(cc(O)c2C(=O)[C@@H]1C)OC(C)(C)CC3 (stereo partly drawn) | > 200 | 50.1 | – |
| CCOC1(OCC)N=C(N)C2(C#N)C3(C(=O)N(C(C)C)N=C3C)C12C#N (stereo not drawn) | > 200 | 166 | – |
| COc1ccc(SS(=O)(=O)c2ccc(OC)cc2)cc1 | > 56.2 | 5.25 | – |
| CCOC(=O)C(=O)Nc1nc2c(OCC)cccc2s1 | – | – | inactive |
| CC1=CC(C)C(=O)N(CC(C)N2CCCC2)C(C)=C1 (stereo not drawn) | > 191 | 74.1 | – |
| CCOC(=O)N1CCN(Cc2cc(=O)n3cc(C)ccc3n2)CC1 | > 200 | > 200 | – |
| CC(C)(C)c1ccccc1N1C(=O)c2ccc3c4c(ccc(c24)C1=O)N(c1ccccc1C(C)(C)C)C3=O | > 200 | > 200 | – |
| COc1ccc(S(=O)(=O)NC(C)C(=O)O)cc1 (stereo not drawn) | – | – | inactive |
| CCCN(CCC)C(=O)Cc1c2n(c3ccccc13)CCCc1ccccc1-2 | > 13.8 | > 13.8 | – |
| CCOc1ccc(NC(=O)/C(CC(=O)c2sc(Nc3ccc(C)cc3)nc2C)=N\NC(N)=S)cc1 | > 200 | > 200 | – |
| O=C1[C@@H]2[C@H](C(=O)N1c1ccccc1)[C@H]1CC[C@H]2N1C(=O)c1ccccc1 | > 55 | > 55 | – |
| COC(=O)C(C(=O)C(=O)Nc1ccccc1C)c1nc2ccc([N+](=O)[O-])cc2[nH]c1=O (stereo not drawn) | – | – | inactive |
